According to ChEMBL document CHEMBL1127981, “Novel ether derivatives of alkyl piperidines as potential sigma / 5HT2 antipsychotic agents” (Bioorg Med Chem Lett, 1994):

Legend:
D(2) dopamine receptor = D(2) dopamine receptor (Homo sapiens, UniProt P14416); assay: Binding affinity towards Dopamine receptor D2 using [3H]spiperone as radioligand
[1] = In vivo potency was determined in anti-mescaline scratch assay(peroral administration); format: functional, organism-based
[2] = target: Sigma non-opioid intracellular receptor 1 (Homo sapiens, UniProt Q99720); assay: Binding affinity towards sigma receptor using [3H](+)-SKF-10047 as radioligand
[3] = target: Serotonin 2 (5-HT2) receptor (Homo sapiens, UniProt P41595+P28223+P28335); assay: Binding affinity towards 5-HT2 receptor using [3H]ketanserin as radioligand; format: protein assay

Sequence of Sigma non-opioid intracellular receptor 1 (Q99720 whole entry): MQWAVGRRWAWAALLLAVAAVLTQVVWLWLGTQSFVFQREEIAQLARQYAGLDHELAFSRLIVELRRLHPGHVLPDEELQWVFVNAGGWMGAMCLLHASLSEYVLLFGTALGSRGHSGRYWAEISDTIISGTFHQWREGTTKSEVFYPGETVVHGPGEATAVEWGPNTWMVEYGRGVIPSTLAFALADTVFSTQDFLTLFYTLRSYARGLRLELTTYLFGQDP
Sequence of D(2) dopamine receptor (P14416 whole entry): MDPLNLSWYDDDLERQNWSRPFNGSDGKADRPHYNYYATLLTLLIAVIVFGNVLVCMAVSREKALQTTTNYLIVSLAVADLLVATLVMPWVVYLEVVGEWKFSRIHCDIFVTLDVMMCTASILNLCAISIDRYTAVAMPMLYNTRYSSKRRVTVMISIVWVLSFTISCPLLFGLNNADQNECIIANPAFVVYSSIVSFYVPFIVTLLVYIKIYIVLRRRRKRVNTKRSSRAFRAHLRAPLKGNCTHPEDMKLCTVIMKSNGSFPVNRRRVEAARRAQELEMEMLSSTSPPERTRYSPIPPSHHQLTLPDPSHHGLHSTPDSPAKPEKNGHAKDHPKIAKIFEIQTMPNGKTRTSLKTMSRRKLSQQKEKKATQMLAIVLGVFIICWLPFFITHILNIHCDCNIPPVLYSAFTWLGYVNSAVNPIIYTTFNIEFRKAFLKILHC

Row | Ki (D(2) dopamine receptor) | ED50 [1] | Ki [2] | Ki [3] | SMILES
1 | 948 nM | 9 mg/kg | 18 nM | 283 nM | C(=C\c1ccccc1)/COCC1CCN(CCCc2ccccc2)CC1
2 | > 10000 nM | 6 mg/kg | 7 nM | 44 nM | C(=C\c1ccccc1)/COCC1CCN(Cc2ccccc2)CC1
3 | > 10000 nM | > 30 mg/kg | 4 nM | 254 nM | C(#Cc1ccccc1)COCC1CCN(Cc2ccccc2)CC1
4 | 241 nM | > 5 mg/kg | 5 nM | 250 nM | C(=C\c1ccccc1)/COCC1CCN(CCc2ccccc2)CC1
5 | 1060 nM | > 10 mg/kg | 2 nM | 81 nM | Fc1ccc(C#CCOCCC2CCN(CCc3ccccc3)CC2)cc1
6 | 620 nM | > 30 mg/kg | 22 nM | 29 nM | C(COCC1CCN(Cc2ccccc2)CC1)=C(c1ccccc1)c1ccccc1
7 | 2180 nM | 8 mg/kg | 12 nM | 31 nM | Fc1ccc(/C=C/COCC2CCN(Cc3ccccc3)CC2)cc1
8 | > 10000 nM |  | 212 nM | 547 nM | C(/C=C/c1ccccc1)=C\OCC1CCN(Cc2ccccc2)CC1
9 | > 10000 nM | > 10 mg/kg | 8 nM | 284 nM | C(=C\c1ccccc1)/COCC1CCN(Cc2cccc3ccccc23)CC1
10 | 131 nM | 4.1 mg/kg | 7 nM | 21 nM | C(#Cc1ccccc1)COCCC1CCN(CCc2ccccc2)CC1
11 | 554 nM | > 30 mg/kg | 27 nM | 180 nM | c1ccc(CCCOCC2CCN(Cc3ccccc3)CC2)cc1
12 | 1360 nM | > 10 mg/kg | 4 nM | 72 nM | C(#Cc1ccccc1)COC1CCN(CCc2ccccc2)CC1
13 | 4320 nM | > 10 mg/kg | 28 nM | 324 nM | FC(F)(F)c1ccc(/C=C/COCC2CCN(Cc3ccccc3)CC2)cc1
14 | 1840 nM | 3.6 mg/kg | 18 nM | 85 nM | Fc1ccc(CCN2CCC(CCOCC#Cc3ccccc3)CC2)cc1
15 | > 10000 nM | > 10 mg/kg | 1 nM | 947 nM | C(#Cc1ccccc1)COCCC1CCN(CC2CC2)CC1
16 | > 10000 nM |  | 90 nM | > 10000 nM | C(=C/c1ccccc1)/COCC1CCN(Cc2ccccc2)CC1
17 | > 10000 nM | > 30 mg/kg | 8 nM | 650 nM | C/C=C/CN1CCC(COC/C=C/c2ccccc2)CC1
18 | > 10000 nM | > 30 mg/kg | 5 nM | 1847 nM | C(=C\c1ccccc1)/COCC1CCN(CC2CC2)CC1
